These are literature values, as cited in patent US20260207703A1 (priority 2023, published 2026).

What is called half-life is how long it takes for the measured level to halve.

The conditions of the data set: in vivo.

With `C=CCN1CC[C@]23c4c5ccc(O)c4O[C@H]2C(=O)CC[C@@]3(O)[C@H]1C5` [Naloxone], the half-life was ~ 1 hr. Take `C=C1CC[C@@]2(O)[C@H]3Cc4ccc(O)c5c4[C@@]2(CCN3CC2CC2)[C@H]1O5` [nalmefene, 17-cyclopropylmethyl-4,5α-epoxy-6-methylenemorphinan-3,14-diol]: the half-life is 8 to 11 h.
